The term melting point denotes the temperature, or range, at which the solid turns liquid.

With `CNCC(O)COc1ccc2c(c1)OCO2` (centres undefined), the melting point lay in the range of 93 to 95 °C. Next, `CC(Cl)C(=O)NCCc1ccc(S(N)(=O)=O)cc1` (centres undefined): 159 to 161 °C; `COc1cc(OC)cc(-n2c(C)c(C)c(C#N)c2N)c1`: 166 to 168 °C; `COc1cc(CN)c2ccccc2n1`: 79 to 81 °C. Next, `COC(=O)c1cc2ccccc2nc1Cl`: 82 to 84 °C. Next, `ClCc1cc2c(cc1Br)OCCO2`: 117 to 119 °C. In the case of `Cc1cc(N)nn1-c1cccc(F)c1`, the melting point was 69 to 71 °C. As for `Cc1ccn(-c2cccc(C(=O)O)c2)n1`, the figure is 198 to 200 °C. On to `CC(=O)N(c1ccc(F)cc1)c1nc(CCl)cs1`, for which the melting point is 127 to 129 °C. As for `N#Cc1c(Cl)cccc1Oc1cccc(C(=O)O)c1`, the figure is 239 to 241 °C; as for `Cc1ncc(-c2ccccc2)cc1N`, 139 to 141 °C; as for `CCNS(=O)(=O)c1ccc(Cl)nc1`, 73 to 75 °C. As for `Cc1cccc(NC(=O)C2CCNCC2)n1`, the figure is 175 to 177 °C; as for `Nc1nc2cc3c(cc2s1)OC(F)(F)O3`, 191 to 193 °C; as for `O=C1CC(C(=O)O)CS1` (centres undefined), 108 to 110 °C. With `CNC(=O)NC(C)(C)C(=O)O`, the melting point lay in the range of 139 to 141 °C. Next, `Cc1nc(-c2ccc(F)c(F)c2)sc1C(=O)O`: 209 to 211 °C; `Nc1ccc(Cc2nnn[nH]2)cc1`: 174 to 176 °C; `Fc1ccc(-n2c(S)nc3ccccc32)cc1`: 237 to 239 °C. Next, `O=C(O)C1Cc2ccccc2CN1S(=O)(=O)c1ccccc1` (centres undefined): 138 to 140 °C; `O=C(O)c1cc2ccc(-c3ccccc3)cc2[nH]1`: 250 to 252 °C; `O=Cc1cn(-c2ccccc2)nc1-c1cc2ccccc2oc1=O`: 223 to 225 °C.

Consider `O=C(O)c1occc1-c1ccc(F)cc1`, for which the melting point lay within 147 to 149 °C. For the compound `O=C(O)CCn1cnc2ccccc21`, the melting point lay within 106 to 108 °C. Next, `COc1ccc2c(c1)c(C(=O)O)c(C)n2C1CCCCC1`: 137 to 139 °C; `CC(C)(C)CNC(=O)c1ccc(C(=O)O)cc1`: 201 to 203 °C; `NC1CC(=O)N(c2ccc(Oc3ccccc3)cc2)C1` (centres undefined): 112 to 114 °C.

The compound `Cc1cccc(COc2cccc(C(=O)O)c2)c1` showed a melting point of 124 to 126 °C. As to `O=C(O)c1ccc(Br)c(S(=O)(=O)Cl)c1`, the melting point was 181 to 183 °C. In turn, `Cc1c(Cl)cccc1OCC(=O)O` showed a melting point of 143 to 145 °C. `Cc1ccc(C(=O)O)c(O)c1C`: the melting point lay within 197 to 199 °C. As to `Nc1ccccc1CC(F)(F)F`, the melting point fell in the range of 44 to 46 °C. As for `CC(c1nnc(S)n1-c1ccc(F)cc1)N(C)C` (centres undefined), the figure is 169 to 171 °C. As for `Cc1ccc(-c2ccc(C=O)o2)cc1`, the figure is 53 to 55 °C; as for `O=C(O)C1(c2cccc(Cl)c2)CCC1`, 101 to 103 °C. Compound `CC1=C(C(=O)O)CCC1` gave a melting point of 130 to 132 °C. As for `CN1CCN(S(=O)(=O)c2cccc(Br)c2)CC1`, the figure is 103 to 105 °C; as for `O=C(O)CCS(=O)(=O)c1ccc2c(c1)CCC2`, 124 to 126 °C; as for `O=C(O)Cc1csc(-c2ccc(F)c(F)c2)n1`, 202 to 204 °C. As for `NCC(=O)N1CCN(c2ccccc2)CC1`, the figure is 69 to 71 °C. As for `CCCNC(=S)NN`, the figure is 61 to 63 °C; as for `CC(Cl)C(=O)NCCc1cccs1` (centres undefined), < 17 °C; as for `Cc1ccccc1C(=O)CC#N`, 84 to 86 °C.

In turn, `Cc1ccccc1OCc1csc(N)n1` yielded a melting point of 95 to 97 °C. Next, `Nc1[nH]ncc1-c1ccccc1Br`: 129 to 131 °C; `N#Cc1nc(Cl)ccc1Cl`: 98 to 100 °C; `Cc1nn(C2CCOC2)cc1C(=O)O` (centres undefined): 163 to 165 °C. In the case of `O=C(O)CCS(=O)(=O)C1CCCC1`, the melting point fell in the range of 98 to 100 °C. Turning to `Cc1ccc2nc(CO)cc(=O)n2c1`, the melting point is 171 to 173 °C. Consider `NS(=O)(=O)CCc1ccc([N+](=O)[O-])cc1`, for which the melting point lay within 118 to 120 °C. Compound `c1csc(-c2ncc[nH]2)c1` came in with a melting point of 191 to 193 °C. `CCOC(=O)Cc1cccc(C#N)c1` registered a melting point of 47 to 49 °C.

Compound `O=C(O)c1cccc(C(=O)N2CCS(=O)(=O)CC2)n1` registered a melting point of 217 to 219 °C. Regarding `OCc1ncc(Br)s1`, the melting point fell in the range of 73 to 75 °C.

As to `Clc1cc(Cl)nc(C2CC2)n1`, the melting point fell in the range of 39 to 41 °C. Next, `COc1ccc(C)cc1Nc1nnc(S)s1`: 210 to 212 °C; `CCC(=O)Nc1cccc(C#N)c1`: 84 to 86 °C; `N#Cc1ccc(NC(=O)CCCCl)cc1`: 114 to 116 °C. Compound `O=C(O)c1cnn(-c2ccc(Cl)cc2)c1` yielded a melting point of 237 to 239 °C. Next, `CC(NC(=O)CCl)c1ccc2c(c1)CCCC2` (centres undefined): 134 to 136 °C.

In the case of `CCOC(=O)c1oc2ccccc2c1CBr`, the melting point was in the range of 77 to 79 °C. The compound `NNC(=O)NCc1cccc(C(F)(F)F)c1` showed a melting point of 86 to 88 °C. As for `O=C(O)C1SCCS1`, the figure is 84 to 86 °C; as for `CCC1C(=O)NC(=S)N(c2ccc(Cl)cc2)C1=O` (centres undefined), 148 to 150 °C. Next, `CC(NC(=O)CCl)c1cccs1` (centres undefined): 92 to 94 °C. Next, `CSc1cc(C(=O)O)c(Cl)cc1Cl`: 192 to 194 °C; `CCN1CCNC1=O`: 75 to 77 °C. With `Cc1nn(-c2ccc(Cl)cc2)c(C)c1CC(=O)O`, the melting point was 178 to 180 °C. Next, `O=Cc1ccc(OCCBr)c(Cl)c1`: 61 to 63 °C; `Nc1ccc2cccc(Br)c2n1`: 152 to 154 °C; `CC(=O)c1cc([N+](=O)[O-])ccc1N`: 144 to 146 °C. In the case of `Clc1cc(Cl)cc(-c2nnc(Br)s2)c1`, the melting point lay within 154 to 156 °C. As to `CCCc1[nH]nc(C(=O)O)c1[N+](=O)[O-]`, the melting point fell in the range of 158 to 160 °C. Next, `O=C(CCl)NC1CCC(C(F)(F)F)CC1` (centres undefined): 65 to 67 °C; `CC1CC(=O)NC(=O)C1`: 144 to 146 °C. The compound `Cc1[nH]c2ccc(F)cc2c1C=O` gave a melting point of 215 to 217 °C. Next, `Nc1ccc(OCc2cccnc2)cc1`: 79 to 81 °C; `Cn1nc(I)c2ncccc21`: 186 to 188 °C.

The compound `CC(C)(C(O)c1ccc(Br)cc1)[N+](=O)[O-]` (centres undefined) came in with a melting point of 106 to 108 °C. As for `N#Cc1ccc(Cl)nn1`, the figure is 83 to 85 °C; as for `CC(C)NC(=O)N1CCC(C(=O)O)CC1`, 137 to 139 °C; as for `N#CCNC(=O)c1ccc(Br)cc1`, 170 to 172 °C.

Compound `O=Cc1c(-c2ccccc2)n(-c2ccccc2)c2ccccc12` registered a melting point of 246 to 248 °C. As for `Cc1cc(I)ccc1[N+](=O)[O-]`, the figure is 79 to 81 °C.

Take `CCNC(=O)CN(CC)C(=O)CCl`: the melting point fell in the range of 246 to 248 °C. `COc1ncncc1N`: the melting point was 71 to 73 °C.

Regarding `O=[N+]([O-])c1cnn(CCCl)c1`, the melting point is 55 to 57 °C. Next, `O=C(O)c1cc2c([nH]1)CCC2`: 109 to 111 °C; `Nc1ccc2nc(C3CC3)oc2c1`: 99 to 101 °C; `N#Cc1ccc(Cn2cncn2)c(F)c1`: 107 to 109 °C.

`c1cc2c(s1)CCNC2C1CC1` (centres undefined) registered a melting point of 44 to 46 °C.

In turn, `NCc1ccc(Cn2cnc3ccccc32)cc1` came in with a melting point of 72 to 74 °C. The compound `Cc1ccc(-n2c(C)ccc2C)c(C(=O)O)c1` came in with a melting point of 157 to 159 °C. On to `COC(=O)c1cc2ccc(F)cc2s1`, for which the melting point lay in the range of 88 to 90 °C. `O=C(O)CCc1ccc([N+](=O)[O-])cc1[N+](=O)[O-]` returned a melting point of 124 to 126 °C. As for `NC(=O)CCC(NC(=O)CCC1CCCC1)C(=O)O` (centres undefined), the figure is 146 to 148 °C; as for `O=Cc1nccn1CC(F)(F)F`, 50 to 52 °C. As for `Cc1nn(-c2ccc(C(F)(F)F)cn2)c(C)c1CC(=O)O`, the figure is 142 to 144 °C; as for `CCOc1ccc(OCCCC(=O)O)cc1`, 104 to 106 °C; as for `Cc1ccc(C)c(-c2nc(N)sc2C)c1`, 92 to 94 °C. In turn, `CC(C)(C)c1cc(N)n(-c2cccc(Cl)c2)n1` returned a melting point of 99 to 101 °C. `NC(=O)NC(=O)OCCCl` came in with a melting point of 185 to 187 °C.

`Cc1n[nH]c(C)c1S(=O)(=O)N1CCOCC1` had a melting point of 82 to 83 °C. As for `Cc1cnc2c(C)cnn2c1N`, the figure is 239 to 241 °C. `O=C(O)c1ccccc1Oc1cccnc1` returned a melting point of 134 to 136 °C.

As to `Cc1cnc2ccccc2c1N`, the melting point is 139 to 141 °C. The compound `O=C(O)CCc1nc(-c2ccc(Cl)cc2)no1` gave a melting point of 152 to 154 °C. Next, `O=C(O)c1ccc(-c2cccc(OC(F)(F)F)c2)s1`: 149 to 151 °C; `O=C(O)c1n[nH]ccc1=O`: 199 to 201 °C; `NC(CSCc1cccc2cccnc12)C(=O)O` (centres undefined): 171 to 173 °C. Next, `O=C1COc2cccc(F)c2N1`: 172 to 174 °C; `NNC(=O)c1n[nH]c(=O)c2ccccc12`: 239 to 241 °C.

For `O=S(=O)(Cl)c1csc(-c2ccccc2)n1`, the melting point was in the range of 86 to 88 °C. Next, `NS(=O)(=O)Cc1ccc(F)cc1`: 122 to 124 °C; `Nc1cccc(CN2CCC(O)CC2)c1`: 146 to 148 °C; `CC(=O)c1ccc(OCC(=O)N(C)C)cc1`: 125 to 127 °C.

Regarding `Cc1cc(NC(N)=O)ccc1Br`, the melting point was in the range of 185 to 187 °C. In turn, `CS(=O)c1cccc(N)c1` (centres undefined) yielded a melting point of 110 to 112 °C. On to `O=C(O)c1cc(S(=O)(=O)Cl)cc(F)c1Cl`, for which the melting point was 149 to 151 °C. As for `O=C(O)CCc1nc(-c2ccccn2)no1`, the figure is 206 to 208 °C; as for `O=C(O)c1cnoc1C1CC1`, 159 to 161 °C.

`N#CC1(C(=O)O)CCC1` came in with a melting point of 64 to 66 °C. As for `Cc1ccccc1-n1c(C)nnc1S`, the figure is 201 to 203 °C; as for `CCn1c(S)nnc1CCC(N)=O`, 208 to 210 °C.
